Reference: patent US12275995B2, “Lysinibacillus sphaericus and aspirin chemoprevention of colorectal cancer” (priority 2019, dated 2025)

How the values were obtained:
colorectal tumorigenesis [1] = test: AOM/DSS-induced colorectal cancer model in conventional C57BL/6 mice; assay type: in vivo
Text: (§1) For each cycle, mice were allowed free access to drinking water supplemented with 2.0% DSS for 5 days, followed by 16 days of regular water. Drinking water was supplemented with antibiotics cocktail (0.2 g/L of ampicillin, neomycin and metronidazole and 0.1 g/L of vancomycin) for two weeks, every other two weeks, till the end of experiment, to deplete the gut microbiota. […] At day 80 for AOM/DSS model and day 84 for APC^min/+ model, mice were harvested. The intestines were longitudinally opened along the mesenteric margin and flushed with ice-cold phosphate-buffered saline (PBS). Solid neoplastic lesions were carefully counted for tumor number and measured for tumor size (average diameter, (major diameter+minor diameter)/2) and tumor load (sum of average diameters of all tumors). The intestinal tissues were fixed in 10% neutral buffered formalin and embedded in paraffin. Sections (4 μm) were stained with hematoxylin and eosin for histological examination by a pathologist (A/Professor Anthony W H Chan) who was blind to the experimental design. The remaining tissues were snap-frozen in liquid nitrogen, and stored at −80° C. until use. All procedures adhered to the guidelines approved by the Animal Experimentation Ethics Committee of the Chinese University of Hong Kong.

colorectal tumorigenesis [2] = test: APCmin/+ spontaneous colorectal cancer mouse model; assay type: in vivo; conditions: aspirin 400 mg/L drinking water; microbiota-depleted APCmin/+ mice
Procedure: as §1, with “Drinking” for “For each cycle, mice were allowed free access to drinking water supplemented with 2.0% DSS for 5 days, followed by 16 days of regular water. Drinking”, “microbiota. Aspirin (Byer, Leverkusen, Germany), freshly prepared (400 mg/L) in drinking water twice a week, was continuously given to mice through the entire experiment.” for “microbiota.”

colorectal tumorigenesis [3] = test: AOM/DSS-treated germ-free and conventionalized germ-free Kunming mice; assay type: in vivo
Procedure: Germ-free wild-type Kunming mice (10 weeks old) in male gender were treated with AOM and DSS to induce intestinal neoplasia. The treatment regimens of AOM, DSS and aspirin were the same as described for conventional mice. In a separate experiment, to determine the direct effects of microbiota on chemoprevention, germ-free mice were conventionalized after their cages were placed out of germ-free environment at 10 weeks old prior to treatment. The remaining procedures performed were the same as described for conventional mice. Germ-free mice were bred at the Department of Laboratory Animal Science, The Third Military Medical University, Chongqing, China. The germ-free animal experiments were approved by the Animal Experimentation Ethics Committee of The Third Military Medical University.

COX-2 = COX-2 mRNA in distal colonic tissues by qRT-PCR; assay type: in vivo, mice; conditions: for tissue COX-2 expression: compared to control mice
Procedure: Total RNA in distal colonic tissues was extracted using TRIzol reagent (Thermo Fisher Scientific). The quality and quantity of RNA were determined by NanoDrop2000 spectrophotometer. Complementary DNA (cDNA) was synthesized from 1000 ng of the extracted RNA by reverse transcription (PrimeScript RT Reagent Kit with gDNA Eraser) (Takara, Japan) and analyzed by qPCR with normalization by GAPDH. The primers used were: […]

PGE2 = test: Plasma PGE2 by ELISA; assay type: in vivo, mice
Procedure: The plasma levels of PGE2 were measured using Multispecies Competitive ELISA Kit (Thermo Fisher Scientific). Briefly, 500 μL ice-cold methanol was added to 150 μL of plasma sample with 28 μM indomethacin and mixed vigorously. After acidification by 2M HCl to pH 3.5, the aqueous layer was extracted with 500 μL chloroform and centrifuged at 2000 g for 20 min^25. The […] organic phase was discarded, and the remaining aqueous phase was evaporated to dryness under nitrogen, before measurement by the kit.

[4] = Plasma aspirin/salicylic acid level in APCmin/+ mice with or without antibiotics (UHPLC-Q-TOF/MS); assay type: in vivo; conditions: for plasma level of aspirin: antibiotics-treated APCmin/+ mice relative to mice with intact microbiota
Procedure: (§2) The levels of aspirin from plasma, gut luminal contents and culture medium was determined by ultra-high-performance liquid chromatography-quadrupole time-of-flight mass spectrometry (UHPLC-Q-TOF/MS). The detection sample was mixed in 5 μL 4-C1-phenylalanine (0.39 mg/mL, internal standard). Aspirin and salicylic acid were extracted twice by 400 μL cold methanol. Supernatants were dried under nitrogen stream and detected by UHPLC (1290 Infinity LC, Agilent, Santa Clara, Calif.) and MS (6550 Q-TOF/MS, Agilent, CA).
(§3) The primary metabolite of aspirin, salicylic acid, in culture medium was examined by Trinder's method^26. Equal number of fecal bacteria (estimated by optical density (OD) 600) from APC^min/+ mice with and without antibiotic treatment were inoculated into the brain heart infusion (BHI) medium (Thermo Fisher Scientific) containing aspirin (10 mM). After 2-hour co-incubation at 37° C., the level of salicylic acid in medium was measured by Trinder's method^26. Briefly, the supernatant of medium was mixed with a solution containing 40 g ferric nitrate, 40 g mercuric chloride and 120 mL 1N HCL in 1 L ddH2O at 1:5 ratio. Salicylic acid was quantified by absorbance value at 540 nm. The plasma and luminal content levels of salicylic acid were evaluated by UHPLC-Q-TOF/MS.
To determine the reason for the enhanced CRC inhibitory effect of aspirin in microbiota-depleted mice, the plasma level of aspirin was evaluated in mice with or without intact microbiota. Antibiotics cocktail was administered to APC^min/+ mice for five days followed by oral administration of aspirin (10 mg/kg) (FIG. 4A), and subsequent UHPLC-Q-TOF/MS analysis (FIG. 4B). […] To confirm this observation, the level of salicylic acid, the primary metabolite of aspirin, was evaluated in the plasma. The plasma level of salicylic acid increased at 1 h post aspirin administration in microbiota-depleted mice compared to mice with intact microbiota (FIG. 9). These findings indicate that the gut microbiota is associated with the reduction of aspirin bioavailability.

fecal bacteria = assay type: in vitro ADME, mice
Procedure: as §3, with “The levels of aspirin from plasma, gut luminal contents and culture medium was determined by ultra-high-performance liquid chromatography-quadrupole time-of-flight mass spectrometry (UHPLC-Q-TOF/MS). The detection sample was mixed in 5 μL 4-[…] (0.39 mg/mL, internal standard). Aspirin and salicylic acid were extracted twice by 400 μL cold methanol. Supernatants were dried under nitrogen stream and detected by UHPLC (1290 Infinity LC, Agilent, Santa Clara, Calif.) and MS (6550 Q-TOF/MS, Agilent, CA). The primary” for “The primary”, “by UHPLC-Q-TOF/MS. Mouse feces were mixed with cooked meat (CM) medium (Thermo Fisher Scientific). […]” for “by UHPLC-Q-TOF/MS.”

[5] = Plasma and luminal aspirin/salicylic acid level in L. sphaericus-monocolonized germ-free mice; assay type: in vivo; conditions: for plasma level of aspirin: L. sphaericus-monocolonized germ-free mice compared with control germ-free mice
Procedure: as §2, §3
In order to determine whether L. sphaericus can degrade aspirin and impacts its bioavailability in vivo, germ-free mice were gavaged with L. sphaericus (1×10^8 CFU) once/day for three days, followed by oral administration of aspirin (10 mg/kg) (FIG. 6C). […] Taken together, these findings from in vitro and in vivo experiments indicate that L. sphaericus causes aspirin degradation in the gut, thereby reducing aspirin bioavailability.

gut microbiota = test: Shotgun metagenomics of feces from aspirin-treated versus control APCmin/+ mice; assay type: in vivo
Procedure: Whole-genome shotgun metagenomic sequencing of fecal samples from mice were performed on Illumina HiSeq 2000 (Illumina, San Diego, Calif.) as previously described^27. […] Mammalian genomes (hg38, felCat8, canFam3, mm10, rn6, susScr3, galGal4 and bosTau8; UCSC Genome Browser) and 6877 bacterial plasmids (NCBI RefSeq database accessed on May 12, 2016), 2116 complete plastomes (NCBI RefSeq database accessed on May 12, 2016) and 6093 UNiVec sequences (NCBI RefSeq database accessed on May 12, 2016), which are potential habitat-/laboratory-associated or extra-chromosomal sequence contaminants, were removed after alignment using Bowtie2 v_2.2.9 with “very-sensitive” default settings. Taxonomy was assigned to metagenomic reads using k-mer-based algorithms implemented in Kraken taxonomic annotation pipeline with each k-mer in a read mapped to the lowest common ancestor of all reference genomes with exact k-mer matches. Each query was thereafter classified to a taxon with the highest total hits of k-mer matched by pruning the general taxonomic trees affiliated with mapped genomes. The final metagenomic read counts were rarified to the sample with the lowest value and further normalized by cumulative sum scaling. In-house fecal metagenomic sequences were examined for the abundance of candidate bacteria identified from mouse fecal samples^27,28.

[6] = reference 24, cited from earlier work
[7] = test system: Lysinibacillus sphaericus; test: In vitro incubation of L. sphaericus with antibiotics (cell growth); assay type: cell-based; conditions: in vitro incubation with single antibiotics of the cocktail
[8] = aspirin 400 mg/L drinking water, microbiota-depleted (antibiotics cocktail) AOM/DSS-treated mice, vs no aspirin
[9] = high-dose aspirin 1200 mg/L, conventional AOM/DSS-treated mice gavaged with L. sphaericus twice/week
[10] = higher dose aspirin 1200 mg/L in drinking water, microbiota-intact AOM/DSS-treated mice, vs mice without aspirin
[11] = AOM/DSS-treated conventionalized germ-free mice
[12] = AOM/DSS-treated germ-free mice, relative to untreated germ-free control mice
[13] = AOM/DSS mice with depleted microbiota
[14] = APCmin/+ mice with depleted microbiota
[15] = 0.5 h post oral aspirin 10 mg/kg
[16] = aspirin-treated APCmin/+ mice compared to control

**Q.** Which results are given for `CC(=O)Oc1ccccc1C(=O)O` [aspirin, acetylsalicylic acid]?
**A.** colorectal tumor load (colorectal tumorigenesis [1]; [8]): significant reductions; colorectal tumor number (colorectal tumorigenesis [1]; [8]): significant reductions; preventive effect on tumor load (colorectal tumorigenesis [1]; [9]): marginally; preventive effect on tumor number (colorectal tumorigenesis [1]; [9]): impaired the preventive effect; colorectal tumor load (colorectal tumorigenesis [1]; [10]): significantly reduced; colorectal tumor number (colorectal tumorigenesis [1]; [10]): significantly reduced; colorectal tumor load (colorectal tumorigenesis [2]): significantly decreased; colorectal tumor number (colorectal tumorigenesis [2]): significantly decreased; suppressive effect on tumorigenesis (tumor load) (colorectal tumorigenesis [3]; [11]): impaired by conventionalization; suppressive effect on tumorigenesis (tumor number) (colorectal tumorigenesis [3]; [11]): impaired by conventionalization; colorectal tumor load (colorectal tumorigenesis [3]; [12]): significantly reduced; colorectal tumor number (colorectal tumorigenesis [3]; [12]): significantly reduced; colonic COX-2 mRNA level (COX-2; [13]): significantly decreased; COX-2 expression (COX-2; AOM/DSS-treated germ-free mice): reductions; colonic COX-2 mRNA level (COX-2; [14]): significantly decreased; tissue COX-2 expression (COX-2; conventional mice with intact microbiota): no differences; tissue COX-2 expression (COX-2; conventionalized germ-free mice): no differences; plasma PGE2 level (PGE2; [13]): significantly decreased; plasma PGE2 level (PGE2; AOM/DSS-treated germ-free mice): reductions; plasma PGE2 level (PGE2; [14]): significantly decreased; plasma PGE2 level (PGE2; conventional mice with intact microbiota, compared to control mice): no differences; plasma PGE2 level (PGE2; conventionalized germ-free mice, compared to control mice): no differences; plasma level of aspirin [4, 15]: significantly increased; plasma level of aspirin ([4]; 1 h post oral aspirin 10 mg/kg): significantly increased; plasma level of salicylic acid (primary metabolite of aspirin) ([4]; 1 h post oral aspirin 10 mg/kg, microbiota-depleted mice compared to mice with intact microbiota): increased; salicylic acid level in the medium (UHPLC-Q-TOF/MS) (fecal bacteria): not significantly different; plasma level of aspirin [5, 15]: significantly reduced; plasma level of aspirin ([5]; 1 h post oral aspirin 10 mg/kg): significantly reduced; level of salicylic acid in the colon luminal content ([5]; 3 h post oral aspirin 10 mg/kg, L. sphaericus-monocolonized mice compared to control germ-free mice): significantly reduced; plasma level of salicylic acid ([5]; 3 h post oral aspirin 10 mg/kg, L. sphaericus-monocolonized mice vs control germ-free mice): significantly lowered; association between microbial community composition and aspirin treatment (multivariate component analysis) (gut microbiota; antibiotics-naive aspirin-treated APCmin/+ vs control mice): significant associations; Bifidobacterium and Lactobacillus genera (linear discriminant analysis effect size) (gut microbiota; [16]): enrichment; Clostridium and Clostridiodes genera (gut microbiota; [16]): depleted; probiotic species B. pseudolongum, B. breve, B. animalis, L. reuteri, L. gasseri, L. johnsonii (gut microbiota; [16]): enriched; level in circulation, effect of gut microbiota ([6]; after oral administration): reducing its level in circulation; difference in blood levels of aspirin in rats with and without microbial depletion ([6]; intravenous administration): abolished by intravenous administration; antithrombotic activity, effect of gut microbiota ([6]; oral administration): reduced the antithrombotic activity

**Q.** For `CC1(C)S[C@@H]2[C@H](NC(=O)[C@H](N)c3ccccc3)C(=O)N2[C@H]1C(=O)O` [ampicillin], which “growth of L. sphaericus” value [7] is on record?
**A.** inhibiting the growth
